Measured values taken from patent publication US7015236B2, “N-heteroarylnicotinamide derivatives” (Sankyo Agro Company, Limited, priority 2001, dated 2006).

Assays:
[1] = tested on: green peach aphid (Myzus persicae); assay: Insecticidal test for green peach aphid (10 ppm and 3 ppm), Test Example 2; type: in vivo; conditions: same manner as Test Example 1; for mortality at 3 ppm: Chemical concentration of spray 3 ppm; for mortality at 10 ppm: Chemical concentration of spray 10 ppm
Method: (§1) Water (30 ml) was put into a beaker, and a leaf of Komatsuna (Brassica var. rapa) was placed within the beaker such that the stem was immersed in water. On the leaf of Komatsuna, five green peach aphids were released and allowed to fertilize. Two days after the releasing, imagoes were removed and the number of larvae was counted.
(§2) A surfactant Newcol NE-710F (trademark, produced by Nippon Nyukazai Co., Ltd., 2%) was dissolved in aqueous acetone (95% aqueous solution, 98%) to prepare solution 1. Next, a dispersant Gousenol GLO5-S (trademark, produced by Nippon Nyukazai Co., Ltd., 0.2% aqueous solution, 0.2%) was dissolved in water (99.8%) to prepare solution 2.
(§3) To each of the compounds (8 mg) of the present invention, the above solution 1 (0.4 ml), the above solution 2 (0.4 ml) and water (8 ml) were added. Further, the compounds of the present invention were each diluted with water so that the concentration of each compound was 100 ppm {as a spreading agent, Gramin S (trademark, produced by Sankyo Co., Ltd.) was added so as to have a concentration of 0.01%}.
(§4) The above chemical liquid (8 ml) was sprayed on the leaf of Komatsuna by use of a rotary spraying tower. The leaf of Komatsuna was put back in the beaker. Then, the beaker was placed in a thermostatic chamber of 25° C. for 16 hours in the light and for 8 hours in the dark. 5 Days after the spraying, the number of dead insects was counted to calculate the mortality (%).
Insecticidal Test for Green Peach Aphid (Myzus persicae) (10 ppm and 3 ppm)
The test was carried out in the same manner as in Test Example 1 except for setting the dilution concentration to 10 ppm and 3 ppm. Incidentally, Comparative Compound a and Comparative Compound b (Compound No. 6) listed in Table 1 of Japanese Provisional Patent Publication No. Hei 10-195072 were used as a comparison. [drawing 25]

[2] = tested on: green peach aphid (Myzus persicae); assay: Insecticidal test for green peach aphid (100 ppm), Test Example 1; type: in vivo; conditions: 120 h, 100 ppm spray on Komatsuna leaf, larvae, counted 5 days after spraying, 25° C., read-out: mortality (%)
Method: Insecticidal test for green peach aphid (Myzus persicae) (100 ppm)
as §1, §2, §3, §4

Row | SMILES | mortality at 3 ppm [1] | mortality at 10 ppm [1] | mortality at 100 ppm [2]
1 | Cc1cnc(NC(=O)c2cnccc2C(F)(F)F)s1 [Comparative Compound a, reference compound] | 0% | 6% | 
2 | O=C(Nc1nncs1)c1cnccc1C(F)(F)F [Comparative Compound b, reference compound] | 0% | 0% | 
3 | Cc1cc(NC(=O)c2cnccc2C(F)(F)F)on1 [Example 1, N-(3-Methyl-5-isoxazolyl)-4-(trifluoromethyl)nicotinamide] | 100% | 100% | ≥ 95%
4 | O=C(Nc1ccno1)c1cnccc1C(F)(F)F [Example 4, N-(5-Isoxazolyl)-4-(trifluoromethyl)nicotinamide] | 100% | 100% | ≥ 95%
5 | CSc1cnoc1NC(=O)c1cnccc1C(F)(F)F [Example 49, N-(4-Methylthio-5-isoxazolyl)-4-(trifluoromethyl)nicotinamide] |  |  | ≥ 95%
6 | Cc1cnsc1N(C(=O)c1cnccc1C(F)(F)F)C(=O)c1cnccc1C(F)(F)F [Example 50, 5-[N,N-Bis(4-trifluoromethylnicotinoyl)]amino-4-methylthioisoxazole] |  |  | ≥ 95%
7 | O=C(Nc1oncc1Oc1ccccc1)c1cnccc1C(F)(F)F [Example 51, N-(4-Phenoxy-5-isoxazolyl)-4-(trifluoromethyl)nicotinamide] |  |  | ≥ 95%
8 | O=C(c1cnccc1C(F)(F)F)N(C(=O)c1cnccc1C(F)(F)F)c1oncc1Oc1ccccc1 [Example 52, 5-[N,N-Bis(4-trifluoromethylnicotinoyl)]amino-4-phenoxyisoxazole] |  |  | ≥ 95%
9 | O=C(Nc1oncc1-c1ccccc1)c1cnccc1C(F)(F)F [Example 53, N-(4-Phenyl-5-isoxazolyl)-4-(trifluoromethyl)nicotinamide] |  |  | ≥ 95%
10 | Cc1ccc(-c2cnoc2NC(=O)c2cnccc2C(F)(F)F)cc1 [Example 54, N-[4-(4-Methylphenyl)-5-isoxazolyl]-4-(trifluoromethyl)nicotinamide] |  |  | ≥ 95%
11 | COc1ccc(-c2cnoc2NC(=O)c2cnccc2C(F)(F)F)cc1 [Example 55, N-[4-(4-Methoxyphenyl)-5-isoxazolyl]-4-(trifluoromethyl)nicotinamide] |  |  | ≥ 95%
12 | O=C(Nc1oncc1-c1ccc(Cl)cc1)c1cnccc1C(F)(F)F [Example 56, N-[4-(4-Chlorophenyl)-5-isoxazolyl]-4-(trifluoromethyl)nicotinamide] |  |  | ≥ 95%
13 | O=C(Nc1oncc1-c1ccc(C(F)(F)F)cc1)c1cnccc1C(F)(F)F [Example 57, N-[4-(4-Trifluoromethylphenyl)-5-isoxazolyl]-4-(trifluoromethyl)nicotinamide] |  |  | ≥ 95%
14 | O=C(Nc1oncc1-c1ccc(OC(F)(F)F)cc1)c1cnccc1C(F)(F)F [Example 58, N-[4-(4-Trifluoromethoxyphenyl)-5-isoxazolyl]-4-(trifluoromethyl)nicotinamide] |  |  | ≥ 95%
15 | O=C(Nc1oncc1-c1cccnc1)c1cnccc1C(F)(F)F [Example 59, N-[4-(3-Pyridyl)-5-isoxazolyl]-4-(trifluoromethyl)nicotinamide] |  |  | ≥ 95%
16 | CON=Cc1noc(NC(=O)c2cnccc2C(F)(F)F)c1Cl [Example 60, N-(4-Chloro-3-methoxyiminomethyl-5-isoxazolyl)-4-(trifluoromethyl)nicotinamide] |  |  | ≥ 95%
17 | Cc1noc(NC(=O)c2cnccc2C(F)(F)F)c1-c1ccccc1 [Example 61, N-(3-Methyl-4-phenyl-5-isoxazolyl)-4-(trifluoromethyl)nicotinamide] |  |  | ≥ 95%
18 | O=C(Nc1oncc1C1=CCCCC1)c1cnccc1C(F)(F)F [Example 62, N-[4-(Cyclohex-1-ene-1-yl)-5-isoxazolyl]-4-(trifluoromethyl)nicotinamide] |  |  | ≥ 95%
19 | COCc1cnoc1NC(=O)c1cnccc1C(F)(F)F [Example 63, N-(4-Methoxymethyl-5-isoxazolyl)-4-(trifluoromethyl)nicotinamide] |  |  | ≥ 95%
20 | O=C(Nc1oncc1-n1cccn1)c1cnccc1C(F)(F)F [Example 64, N-[4-(1H-Pyrazol-1-yl)-5-isoxazolyl]-4-(trifluoromethyl)nicotinamide] |  |  | ≥ 95%
21 | O=C(Nc1oncc1C1CCCCC1)c1cnccc1C(F)(F)F [Example 65, N-(4-Cyclohexyl-5-isoxazolyl)-4-(trifluoromethyl)nicotinamide] |  |  | ≥ 95%
22 | Cc1noc(NC(=O)c2cnccc2C(F)(F)F)c1F [Example 66, N-(4-Fluoro-3-methyl-5-isoxazolyl)-4-(trifluoromethyl)nicotinamide] |  |  | ≥ 95%
